Three compounds from the supplement of paper PMC11451515 can be followed below.

The experiment has as its system NOMO1. Briefly: cell viability relative to DMSO control; higher = less cytotoxic. To be noted: 48 h. Put shortly: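 Library compounds in DMSO were pin-dosed into 1536-well plates (5 μl) holding NOMO1 or SEM (500 cells/well) or P12-Ichikawa (1000 cells/well) leukemia cells, across an 11-point threefold series of 47 μM to 0.79 nM. Each cell line had been adapted for at least four passages in each medium. CellTiter-Glo One luminescence was read after 48 h at 37°C. Viability is the per-plate percentage relative to DMSO wells, with cell-free wells as background.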

Setting [1] is: RPMI 5 mM glucose + 10% FBS, 0.000781 µM.
[2] abbreviates: RPMI 5 mM glucose + 10% FBS, 0.00234 µM.
The mark [3] stands for this setting: RPMI 5 mM glucose + 10% FBS, 0.00702 µM.
The mark [4] stands for this setting: RPMI 5 mM glucose + 10% FBS, 0.0211 µM.
[5] abbreviates: RPMI 5 mM glucose + 10% FBS, 0.0632 µM.
The mark [6] stands for this setting: RPMI 5 mM glucose + 10% FBS, 0.19 µM.
Setting [7] is: RPMI 5 mM glucose + 10% FBS, 0.569 µM.
[8] abbreviates: RPMI 5 mM glucose + 10% FBS, 1.71 µM.
Setting [9] is: RPMI 5 mM glucose + 10% FBS, 5.12 µM.
Setting [10] is: RPMI 5 mM glucose + 10% FBS, 15.4 µM.
Setting [11] is: RPMI 5 mM glucose + 10% FBS, 46.1 µM.
Setting [12] is: RPMI 5 mM glucose + 10% dialyzed FBS, 0.000781 µM.
Setting [13] is: RPMI 5 mM glucose + 10% dialyzed FBS, 0.00234 µM.
Setting [14] is: RPMI 5 mM glucose + 10% dialyzed FBS, 0.00702 µM.
Setting [15] is: RPMI 5 mM glucose + 10% dialyzed FBS, 0.0211 µM.
[16] abbreviates: RPMI 5 mM glucose + 10% dialyzed FBS, 0.0632 µM.
Where [17] appears, read: RPMI 5 mM glucose + 10% dialyzed FBS, 0.19 µM.
The mark [18] stands for this setting: RPMI 5 mM glucose + 10% dialyzed FBS, 0.569 µM.
Where [19] appears, read: RPMI 5 mM glucose + 10% dialyzed FBS, 1.71 µM.
Where [20] appears, read: RPMI 5 mM glucose + 10% dialyzed FBS, 5.12 µM.
Setting [21] is: RPMI 5 mM glucose + 10% dialyzed FBS, 15.4 µM.
Setting [22] is: RPMI 5 mM glucose + 10% dialyzed FBS, 46.1 µM.

Regarding `NC[C@H]1CC[C@H](C(=O)O)CC1`, the cell viability is, setting by setting: under setting [1], 112%; under setting [2], 133%; under setting [3], 105%; under setting [4], 109%; under setting [5], 119%; under setting [6], 128%. Besides, the cell viability runs as follows: under setting [7], 110%; under setting [8], 110%; under setting [9], 116%; under setting [10], 121%; under setting [11], 120%.

On to `C[C@H](NC(=O)/C(C#N)=C/c1cccc(Br)n1)c1ccccc1`, for which the cell viability is, setting by setting: under setting [1], 104%; under setting [2], 104%; under setting [3], 123%; under setting [4], 112%; under setting [5], 119%; under setting [6], 98.1%. Also, the cell viability turned out to be 103% under setting [7]; 87.7% under setting [8]; 19% under setting [9]; 8.24% under setting [10]; 7.32% under setting [11]; 99.5% under setting [12]. Besides, the cell viability amounted to 115% under setting [13]; 109% under setting [14]; 114% under setting [15]; 107% under setting [16]; 129% under setting [17]; 115% under setting [18]. Further, the cell viability reads like this: under setting [19], 93.8%; under setting [20], 38.8%; under setting [21], 8.68%; under setting [22], 6.9%.

As for `CN\1C(=O)/C(=C(\N=C1N2CCCC[S+]2([O-])=O)C(=O)NCC3=CC=C(F)C=C3)O`, the cell viability is, setting by setting: under setting [1], 113%; under setting [2], 105%; under setting [3], 116%; under setting [4], 124%; under setting [5], 116%; under setting [6], 107%. For the same compound, the cell viability runs as follows: under setting [7], 112%; under setting [8], 123%; under setting [9], 115%; under setting [10], 113%; under setting [11], 106%; under setting [12], 123%. Also, the cell viability under setting [13] came to 116%; the cell viability under setting [14] was found to be 119%; the cell viability under setting [15] amounted to 123%; the cell viability under setting [16] was 111%; the cell viability under setting [17] was determined as 119%; the cell viability under setting [18] was 113%. The cell viability under setting [19] was determined as 107%, the cell viability under setting [20] is 118%, the cell viability under setting [21] was found to be 105% and the cell viability under setting [22] worked out at 99.2%.
